Series [1] has as its target Recombinant human Syk (amino acids 342-635) (Homo sapiens (Human), UniProt P43405). Nature of the series: Syk Kinase Test (Kinase Glo luminescence). The settings on record: comparison compounds, read-out: IC50 in μM (SYK-Inhibition). The format is biochemical. The protocol: (§1) The output file of the reader is a csv file that contains the well number and measured relative light units (RLU). For data evaluation and calculation, the measurement of the negative control was set as 100% ctrl and the measurement of the positive control was set as 0% ctrl. Based on this values the % value for the measurement of each substance concentration was calculated using an Assay Explorer software (Accelrys). Normally, the % ctrl values calculated are between 0% and 100% values but may also occur outside these limits in individual cases based on variability or compound characteristics. The IC50 values were calculated from the % ctrl values using Assay Explorer software. Calculation: [y=(a−d)/(1+(x/c)^b)+d] a=low value, d=high value; x=conc M; c=IC50 M; b=hill; y=% ctrl.
(In Kinase-Glo more light means more ATP remaining.)

For series [2], the target named is Recombinant human Aurora B (amino acids 1-344) (Homo sapiens (Human), UniProt Q96GD4). Put plainly: Aurora B Kinase Test (ADP Glo luminescence). The format is biochemical. The settings on record: comparison compounds, read-out: IC50 in μM (AURB-Inhibition). How it is done:
The activity of the Aurora B kinase protein was determined using the ADP Glo® Luminescence Kinase test (Promega; V9103X).
Serial Dilution is done in 1:10 steps in 100% DMSO.
Then 20 μl Kinase detection mix (Detection Buffer #V913B Promega; Kinase Detection Substrate #V914B Promega) were added and incubated for 40 minutes at room temperature.
as §1, with “measured RLU.” for “measured relative light units (RLU).”, “as 0%” for “as 100%”, “as 100%” for “as 0%”, “Calculation: [y=(a−d)/(1+(x/c)^b)+d],” for “Calculation: [y=(a−d)/(1+(x/c)^b)+d]”
Background: ADP-Glo turns the ADP formed in a reaction into a luminescent signal.

Another series has as its target FLT3 (Homo sapiens (Human), UniProt P36888). Nature of the series: FLT3 Kinase Test (Z'-LYTE). Type of series: biochemical. The settings on record: comparison compounds, read-out: IC50 in μM (FLT3-Inhibition). The protocol:
The activity of FLT3 is measured using the Z′-LYTE™ assay technology from Invitrogen (#PV3191)
The reaction is started by addition of 2.5 μl of the 4×ATP solution.
Positive controls are reaction mixtures containing no test compound; negative controls (blanks) are reaction mixtures containing no kinase. As a further control, the phosphopeptide solution is added to wells without kinase (=100% phosphorylation control).
The reaction is performed for 1 h at room temperature before 5 μl of the development solution is added. After a further incubation for 1 h at room temperature 5 μl of the stop reagent is added.
The output text file is evaluated in an “MS-Excel-VB-Makro” and “GraphPadPrism” (Version 5) (GraphPad Software Inc.) is used to calculate the results. Data for the inhibition of FLT3 are reported in M. data for the inhibition of the protease are reported in % CTL.

For the next series, the target named is Human GSK3beta (Homo sapiens (Human), UniProt P49841). Put plainly: GSK 3β Kinase-Test (Z'-LYTE). Type of series: biochemical. The settings on record: comparison compounds, read-out: IC50 in μM (GSK3beta-Inhibition). The protocol: Human GSK3beta (expressed and prified from SF21 cells) is obtained from the University Dundee/Scotland (Dr. James Hastie—Dept. of Biochemistry) in 50 mM Tris (pH7.5); 150 mM NaCl; 0.1 mM EGTA, 270 mM Succrose, 0.1% B-mercaptoethanol, 1 mM benzamidine, 0.2 mM PMSF; sequence see below). The enzyme is diluted to 3.56 μM (168 μg/ml) in enzyme dilution buffer and 6 μl aliquots are stored at −80° C.
The activity of GSK3 kinase protein is measured using the Z′-LYTE™ assay technology from Invitrogen (# PV3324).
The assay is performed in 384 black plates from Corning (#3676) in a final volume of 10 μl by adding 5 μl of kinase peptide mix and 2.5 μl of compound dilution. The reaction is started by addition of 2.5 μl of the 4×ATP solution.
Positive controls are reaction mixtures containing no test compound; negative controls (blanks) are reaction mixtures containing no ATP. As a further control, the phosphopeptide solution is added to wells without kinase and without ATP (=100% phosphorylation control). The non inhibited kinase reaction will result in a phosphorylation corresponding to 20%-30% of the phosphorylation control.
The reaction is performed 1 h at room temperature. After 1 h 5 μl of the development solution is added. After a further incubation for 1 h at room temperature 5 μl of the stop reagent is added. Finally the plates are read on a Flex Station II 384 (Molecular Devices).
The output text file is evaluated in an “MS-Excel-VB-Makro” and “GraphPadPrism” (Version 5) (GraphPad Software Inc.) is used to calculate the results. Data for the inhibition of GSK3beta are reported in M. data for the inhibition of the protease are reported in % CTL.

A short description of series [3]: Human Liver Microsomal Stability Test. Type of series: in vitro ADME. Conditions: human liver microsomes, comparison compounds. The protocol: The metabolic degradation for a specific SYK-inhibitor is performed at 37° C. with pooled human liver microsomes (human liver microsomes are commercially available as “BD UltraPool™” by Corning Life Sciences, Fogostraat 12, 1060 LJ Amsterdam, The Netherlands). The final incubation volume of 100 μl per time point contains TRIS buffer pH 7.6 at RT (0.1 M), magnesium chloride (5 mM), microsomal protein (1 mg/ml) and the test compound at a final concentration of 1 μM.
Following a short preincubation period at 37° C., the reaction is initiated by addition of beta-nicotinamide adenine dinucleotide phosphate in its reduced form (NADPH, 1 mM) and terminated by transfering an aliquot into solvent after different time points. Additionally, the NADPH-independent degradation is monitored in incubations without NADPH, terminated at the last time point.
The quenched (terminated) incubations are then pelleted by centrifugation (10000 g, 5 min).
An aliquot of the supernatant is assayed by LC-MS/MS for the remaining amount of parent compound. The half-life (t½ INVITRO) is determined by the slope of the semilogarithmic plot of the concentration-time profile.
The intrinsic clearance (CL_[…]) is calculated by considering the amount of protein in the incubation: CL_[…] [μl/min/mg protein]=(Ln 2/(t½INVITRO [min]*protein content [mg/ml]))*1000
The protein content [mg/ml] was determined with the “Bicinchoninic Acid Kit” of Sigma Aldrich (commercially available).
The upscaled intrinsic Clearance (CL_UP_INT) is calcuated by considering the liver weight [g liver/kg body weight] and the microsomal recovery [mg protein/g liver]: CL_UP_INT [ml/min/kg]=0.001*CL_[…]*liver weight*microsomal recovery • with microsomal recovery=45 mg protein/g liver • with liver weight=25.7 g liver/kg body weight
The percent hepatic blood flow (% Qh) is finally calculated by considering the human liver blood flow Q [ml/min/kg]: % Qh [%]=((Q*CL_UP_INT)/(Q+CL_UP_INT)/Q)*100 • with liver blood flow (Q)=20.7 ml/min/kg.
A general note: Liver microsomes are a subcellular fraction often used to study metabolism.

The mark [4] stands for this setting: Example numbers of WO 2013/014060.
Setting [5] is: Example numbers of WO 2011/092128.

Read-outs that look alike come from different tables or passages of the source.

Recombinant human Aurora B (amino acids 1-344), sequence (Q96GD4 whole entry, the tested form may be a part): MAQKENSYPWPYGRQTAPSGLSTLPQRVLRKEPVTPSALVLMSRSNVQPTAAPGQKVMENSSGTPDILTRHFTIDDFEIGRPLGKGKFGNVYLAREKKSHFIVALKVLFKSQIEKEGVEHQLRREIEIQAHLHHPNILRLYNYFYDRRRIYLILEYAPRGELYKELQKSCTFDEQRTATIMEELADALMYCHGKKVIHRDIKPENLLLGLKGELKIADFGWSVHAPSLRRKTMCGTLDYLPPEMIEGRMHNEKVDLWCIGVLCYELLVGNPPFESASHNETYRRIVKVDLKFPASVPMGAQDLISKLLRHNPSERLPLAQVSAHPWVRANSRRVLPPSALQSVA
FLT3, sequence (P36888 564-958): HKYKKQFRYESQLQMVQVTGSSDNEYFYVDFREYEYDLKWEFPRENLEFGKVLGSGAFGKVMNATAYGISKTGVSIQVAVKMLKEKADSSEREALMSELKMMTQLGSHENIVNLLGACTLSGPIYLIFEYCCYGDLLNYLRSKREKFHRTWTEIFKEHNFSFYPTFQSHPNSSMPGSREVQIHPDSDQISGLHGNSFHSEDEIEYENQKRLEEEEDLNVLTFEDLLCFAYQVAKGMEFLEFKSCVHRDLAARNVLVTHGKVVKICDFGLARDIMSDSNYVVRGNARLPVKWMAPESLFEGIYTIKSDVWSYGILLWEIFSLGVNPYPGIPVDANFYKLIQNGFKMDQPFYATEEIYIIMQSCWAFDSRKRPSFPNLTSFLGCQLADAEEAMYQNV
Human GSK3beta, sequence (P49841 whole entry): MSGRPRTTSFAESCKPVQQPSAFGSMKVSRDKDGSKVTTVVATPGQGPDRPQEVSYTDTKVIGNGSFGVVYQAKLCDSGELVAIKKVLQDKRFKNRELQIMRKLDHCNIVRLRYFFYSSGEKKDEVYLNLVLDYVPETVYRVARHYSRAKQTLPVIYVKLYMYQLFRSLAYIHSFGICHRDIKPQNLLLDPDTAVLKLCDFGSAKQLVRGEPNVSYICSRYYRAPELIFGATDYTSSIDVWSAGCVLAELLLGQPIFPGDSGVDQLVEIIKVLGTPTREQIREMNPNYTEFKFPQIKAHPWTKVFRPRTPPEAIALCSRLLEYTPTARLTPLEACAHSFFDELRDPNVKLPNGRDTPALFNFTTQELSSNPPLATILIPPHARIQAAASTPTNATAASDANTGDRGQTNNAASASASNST

Broadly, the IC50 is the concentration at which inhibition is half-maximal. With `C[C@@H](Oc1nc(-c2cnn(C3CCC(F)(F)CC3)c2)cc2nn(C)cc12)[C@H]1CNC(=O)C1` [Example 10, (4R)-4-[(1R)-1-[6-[1-(4,4-Difluorocyclohexyl)pyrazol-4-yl]-2-methyl-pyrazolo[4,3-c]pyridin-4-yl]oxyethyl]pyrrolidin-2-one], the IC50 in series [1] (setting [4]) was 0.001 µM; in series [2] (setting [4]), 0.271 µM; at FLT3 (setting [4]), 0.312 µM; on Human GSK3beta (setting [4]), over 10 µM. Further, the “microsomal stability Cl [% Qh]” value in series [3] (setting [4]) is listed as 57 % Qh.
Take `C[C@@H](Oc1nc(-c2cnn(C3CCCCC3)c2)cc2nn(C)cc12)[C@H]1CNC(=O)C1` [Example 7, (R)-4-((R)-1-(6-(1-cyclohexyl-1H-pyrazol-4-yl)-2-methyl-2H-pyrazolo[4,3-c]pyridin-4-yloxy)ethyl)pyrrolidin-2-one]: the IC50 is 0.002 µM in series [1] (setting [5]), 2.33 µM in series [2] (setting [5]), 0.452 µM on FLT3 (setting [5]) and over 10 µM on Human GSK3beta (setting [5]). In addition, in series [3] (setting [5]), the “microsomal stability Cl [% Qh]” value is 79 % Qh.
On to `Cc1c(-c2cc(O[C@H](C)[C@H]3CNC(=O)C3)c3cccnc3c2)cnn1C` [compound 112], for which the IC50 in series [1] (setting [4]) was 0.006 µM; in series [2] (setting [4]), 2.96 µM; on FLT3 (setting [4]) it was 1.25 µM; at Human GSK3beta (setting [4]) it was over 10 µM. In addition, the “microsomal stability Cl [% Qh]” value in series [3] (setting [4]) is under 23 % Qh.
The corresponding values for `C[C@@H](Oc1nc(-c2cc3nn(C)cc3c(O[C@H](C)[C@H]3CNC(=O)C3)n2)cc2nn(C)cc12)[C@@H]1CNC(=O)C1` [Example 11, (4S)-4-[(1R)-1-[2-methyl-6-[2-methyl-4-[(1R)-1-[(3R)-5-oxopyrrolidin-3-yl]ethoxy]-pyrazolo[4,3-c]pyridin-6-yl]pyrazolo[4,3-c]pyridin-4-yl]oxyethyl]pyrrolidin-2-one] are 0.002 µM, 0.752 µM, 0.738 µM, over 10 µM and 24 % Qh.

Source of the values: US10947243B2, “Heteroaryl SYK inhibitors” (Boehringer Ingelheim International GmbH, priority 2014, dated 2021).
